Results: patent US20090076049A1, “Novel Spiro [Imidazolidine-4, 3' -Indole] 2, 2', 5' (1H) Triones for Treatment of Conditions Associated with Vanilloid Receptor 1” (AstraZeneca AB, priority 2006, published 2009)

target: T1, hVR1 (Homo sapiens, UniProt Q8NER1); experiment: hVR1 FLIPR (Fluorometric Image Plate Reader) screening assay, IC50 determination; format: cell-based; conditions: transfected CHO cells stably expressing hVR1; Fluo-4 calcium signal; agonist 50 nM capsaicin or MES buffer pH 5.2
T1 construct: expressed in transfected cells; host or cells: CHO cells, stably transfected
Protocol: 1. hVR1 FLIPR (Fluorometric Image Plate Reader) Screening Assay
Transfected CHO cells, stably expressing hVR1 (15,000 cells/well) are seeded in 50 μL media in a black clear bottom 384 plate (Greiner) and grown in a humidified incubator (37° C., 2% CO2), 24-30 hours prior to experiment.
Subsequently, the media is removed from the cell plate by inversion and 2 μM Fluo-4 is added using a multidrop (Labsystems). Following the 40 min dye incubation in the dark at 37° C. and 2% CO2, the extracellular dye present is washed away using an EMBLA (Scatron), leaving the cells in 40 μL of assay buffer (1×HBSS, 10 mM D-Glucose, 1 mM CaCl2, 10 mM HEPES, 10×7.5% NaHCO3 and 2.5 mM Probenecid).
FLIPR Assay—IC50 Determination Protocol
For IC50 determinations the fluorescence is read using FLIPR filter 1 (em […]). A cellular baseline recording is taken for 30 seconds, followed by a 20 μL addition of 10, titrated half-log concentrations of the test compound, yielding cellular concentration ranging from 3 μM to 0.1 nM. Data is collected every 2 seconds for a further 5 min prior to the addition of a VR1 agonist solution: either 50 nM solution of capsaicin or MES (2-[N-morpholino]ethanesulfonic acid) buffer (pH 5.2), by the FLIPR pipettor. The FLIPR continues to collect data for a further 4 min. Compounds having antagonistic properties against the hVR1 will inhibit the increase in intracellular calcium in response to the capsaicin addition. This consequently leading to a reduction in fluorescence signal and providing a reduced fluorescence reading, compared with no compound, buffer controls. Data is exported by the FLIPR program as a sum of fluorescence calculated under the curve upon the addition of capsaicin. Maximum inhibition, Hill slope and IC50 data for each compound are generated.

T1 sequence (Q8NER1 whole entry): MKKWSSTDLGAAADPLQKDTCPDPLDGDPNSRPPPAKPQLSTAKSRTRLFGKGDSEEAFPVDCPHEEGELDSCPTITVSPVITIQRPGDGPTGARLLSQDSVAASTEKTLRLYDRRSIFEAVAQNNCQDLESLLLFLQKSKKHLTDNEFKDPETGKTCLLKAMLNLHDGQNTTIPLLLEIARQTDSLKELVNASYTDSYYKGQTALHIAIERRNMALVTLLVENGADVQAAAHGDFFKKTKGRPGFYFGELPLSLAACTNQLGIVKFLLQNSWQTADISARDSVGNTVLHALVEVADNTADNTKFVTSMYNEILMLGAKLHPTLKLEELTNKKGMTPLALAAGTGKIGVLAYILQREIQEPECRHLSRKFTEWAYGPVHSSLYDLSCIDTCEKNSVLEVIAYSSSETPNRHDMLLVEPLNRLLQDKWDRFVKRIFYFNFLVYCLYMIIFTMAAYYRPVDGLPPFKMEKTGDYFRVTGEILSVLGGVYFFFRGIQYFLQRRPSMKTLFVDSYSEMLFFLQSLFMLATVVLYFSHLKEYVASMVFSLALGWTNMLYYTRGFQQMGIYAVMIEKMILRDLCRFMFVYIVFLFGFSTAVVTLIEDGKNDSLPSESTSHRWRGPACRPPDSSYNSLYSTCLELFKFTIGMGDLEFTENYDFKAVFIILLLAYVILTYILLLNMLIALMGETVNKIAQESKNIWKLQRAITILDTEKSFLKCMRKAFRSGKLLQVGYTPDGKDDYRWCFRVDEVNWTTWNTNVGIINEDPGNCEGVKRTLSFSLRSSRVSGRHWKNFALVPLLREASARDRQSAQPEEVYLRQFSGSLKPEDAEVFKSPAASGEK

Compound | IC50
O=C1NC(=O)C2(N1)C(=O)N(C/C=C/c1ccc(Cl)c(Cl)c1)c1ccc(OC(F)(F)F)cc12 (stereo not drawn) [Compound 3] | 3 µM
CN1C(=O)N(C)C2(C1=O)C(=O)N(C/C=C/c1ccc(Cl)c(Cl)c1)c1ccccc12 (stereo not drawn) [Compound 5, 1′-[(2E)-3-(3,4-dichlorophenyl)prop-2-en-1-yl]-1,3-dimethyl-2H,5H-spiro[imidazolidine-4,3′-indole]-2,2′,5(1′H)-trione] | 2.11 µM
COCCN1C(=O)N(CCOC)C2(C1=O)C(=O)N(C/C=C/c1ccc(Cl)c(Cl)c1)c1ccccc12 (stereo not drawn) [Compound 7, 1′-[(2E)-3-(3,4-dichlorophenyl)prop-2-en-1-yl]-1,3-bis(2-methoxyethyl)-2H,5H-spiro[imidazolidine-4,3′-indole]-2,2′,5(1′H)-trione] | 3.01 µM
